Earlier results on eight compounds are cited in patent US20080181955A1, “Natural dietary supplement and method for enhancing human libido” (priority 2007, published 2008).

One data set relates to nitric oxide (NO). The following applies: resveratrol alone.
In the next data set the target is PDE-5 (Homo sapiens, UniProt O76074). Conditions: resveratrol alone.
For data set [1], the system named is human endothelial NO synthase. Conditions: polyphenolic constituents of red wine.
The conditions of data set [2]: oral.

On to `Oc1ccc(C=Cc2cc(O)cc(O)c2)cc1` [resveratrol], for which the “release of NO” value with nitric oxide (NO) is listed as “releases NO”. At PDE-5, the “effect on PDE-5” value is “no recognizable effect on PDE-5”.
For the compound `Oc1ccc(/C=C/c2cc(O)cc(O)c2)cc1` [trans-resveratrol], the eNOS expression result in data set [1] was “most efficacious stimulator of eNOS expression”.
As to `COc1cc(C(=O)O)ccc1O` [vanilla acid], the eNOS expression result in data set [1] was “enhanced eNOS expression moderately”.
Consider `CCCc1nn(C)c2c(=O)[nH]c(-c3cc(S(=O)(=O)N4CCN(C)CC4)ccc3OCC)nc12` [Sildenafil, sildenafil], for which the half-life entry in data set [2] was “about 4 hours”.
Turning to `O=C(O)/C=C/c1ccc(O)c(O)c1` [caffeic acid], the eNOS expression entry in data set [1] is given as “enhanced eNOS expression moderately”.
With `CN1CC(=O)N2[C@H](c3ccc4c(c3)OCO4)c3[nH]c4ccccc4c3C[C@@H]2C1=O` [Tadalafil, tadalafil], the half-life result in data set [2] was “about 17.5 hours”.
As to `O=C(O)/C=C/c1ccc(O)cc1` [p-coumaric acid], the eNOS expression entry in data set [1] was “enhanced eNOS expression moderately”.
For `O=C(O)c1ccccc1` [benzoic acid], in data set [1], the eNOS expression entry is given as “enhanced eNOS expression moderately”.
